According to US20230270721A1, “INHIBITION OF BAX-MEDIATED CELL DEATH BY ELTROMBOPAG” (Albert Einstein College of Medicine, priority 2020, published 2023):
Read-outs that look alike come from different tables or passages of the source.

Experiments:
BAX [1] = target: T1, BAX (Homo sapiens, UniProt Q07812); assay: BAX conformation change assay using anti-6A7 immunoprecipitation; format: biochemical; settings: BAX 10 µM, 4 equivalents BIM-BH3, 5 or 10 equivalents EO
T1 construct: Human full-length (1-192) wild-type BAX (Q07812); made in house; host or cells: E. coli BL21 (DE3) CodonPlus (DE3)-RIPL
Protocol: Exposure of the 6A7 epitope of BAX was assessed by immunoprecipitation with a 6A7-domain-specific antibody purchased from Santa Cruz (SC-23959). Protein G beads (50 µL, Santa Cruz) were washed three times with 3% BSA in PBS and incubated with 15 µL 6A7 antibody at 4° C. for 1 hr. Recombinant full-length BAX (10 µM) was incubated with 4 equivalents of BIM-BH3 peptide alone and in the presence of 5 or 10 equivalents of EO for 15 min at room temperature. Incubation of full-length recombinant BAX with 0.1% Triton X served as a positive control for exposure of the 6A7 epitope. After incubation, 10 µL of each reaction was transferred to the protein G beads pre-loaded with the anti-6A7 antibody, and 1 µL was reserved as a loading control. After 90 minutes of incubation at 4° C. beads were collected and washed three times with […] of 3% BSA in PBS and solubilized with 25 µL LDS/DTT loading buffer. Samples were resolved by SDS-PAGE electrophoresis and western blot analysis with an anti-BAX yth-2D2 antibody (Invitrogen).
(§1) Prior to permeabilizing membranes, activated BAX must first translocate to the membrane (Lovell, J. F. et al. Cell 135, 1074-1084, (2008)). To explore this earlier step in BAX activation, an NBD-fluorescence-based translocation assay was used. […]

BAX in BAK KO MEFs = target: T2, BAX in BAK KO MEFs (Mus musculus, UniProt Q07813); assay: Cellular Thermal Shift Assay (CETSA); format: cell-based; settings: 10 pM EO, 2 hours
T2 construct: endogenous in cells; host or cells: BAK KO mouse embryonic fibroblasts
Protocol: BAK KO MEFs were seeded in a 10 cm dish for 18-24 hours or until approximately 80% confluent. The media was removed and replaced with media lacking FBS, and cells were treated with 10 pM EO as a 10X stock in H2O or vehicle for 2 hours. The media was then removed, and cells were harvested using a cell scraper and washed twice with PBS. Cells were then resuspended in PBS to 6×10^6 cells/mL, and […] was transferred to PCR tubes. Cells were then heated in a Biorad C1000 Touch Thermal Cycler for 3 minutes using a temperature gradient (50, 52.1, 55.4, 59.4, 64.9, 69.2, 72.1, and 74° C.). Cells remaining at room temperature (25° C.) served as a control. All cells were lysed by three cycles of freeze-thawing using liquid nitrogen. Samples were then centrifuged at 2×10^4 g for 15 minutes. The supernatants were collected and resolved by SDS-PAGE with an N-terminal BAX antibody (Cell Signaling, 2772S). Samples were analyzed and quantified using a Li-Cor Odyssey Clx and normalized to 25° C. (100%) and 74° C.(0%).
To confirm direct engagement of BAX, Cellular Thermal Shift Assay (CETSA) was performed in BAK KO MEFs.

BAX [2] = target: T1, BAX; assay: Liposomal translocation assay with NBD-labeled BAX; format: biochemical; settings: for IC50: NBD-labeled BAX 800 nM, 120 minutes
Protocol: Lipids (Avanti Polar Lipids) at the following ratio, phosphatidylcholine 48%, phosphatidylinositol 10%, dioleoyl phosphatidylserine 10%, phosphatidylethanolamine, 28%, and tetraoleoyl cardiolipin 4%, were mixed in a total of 1 mg, dried and resuspended in 10 mM HEPES, pH 7, 200 mM KCl, and 5 mM MgCl2. The resulting slurry was vortexed for 10 minutes and sonicated in a sonicating water bath for 10 minutes. Liposomes were formed by extrusion of the suspension using Avanti Mini-Extruder with polycarbonate membranes of 0.1 µm pore size (Avanti Polar Lipids) followed by passage through a CL2B Sepharose column (GE Healthcare). Recombinant wild type BAX was labeled at cysteine by overnight incubation at 4° C. with 10 equivalents of iodoamino-NBD (IANBD, Thermo Fisher) and 3 equivalents of TCEP to maintain reduced cysteine. Labeled BAX (BAX-NBD) was separated from unreacted IANBD by gel filtration (Econo-Pac 10 DG desalting column, BioRad) and used immediately. […] Upon BAX-NBD translocation, the NBD fluorophore was excluded from bulk water through contact with the liposomal membrane leading to an increase in fluorescence intensity. Fluorescence (λex = 475 nm and λem = 530 nm) was measured at 1-minute intervals at 37° C. indicated using a Tecan Infinite M1000 plate reader. The percentage translocation at any given time point was calculated as percentage translocation=[((F-F0)/(F100-F0))(100)]-[((FS-FS0)/(FS100-FS0))(100)] where F0 and F100 are baseline and maximal fluorescence, respectively and FS, FS0, and FS100 are the current fluorescence, baseline fluorescence, maximal fluorescence of solution BAX incubated in the absence of liposomes. The subtraction of the percent translocation of solution BAX is required to correct for NBD fluorescence bleaching that occurs throughout the reaction. […]
as §1

T1 sequence (Q07812 whole entry): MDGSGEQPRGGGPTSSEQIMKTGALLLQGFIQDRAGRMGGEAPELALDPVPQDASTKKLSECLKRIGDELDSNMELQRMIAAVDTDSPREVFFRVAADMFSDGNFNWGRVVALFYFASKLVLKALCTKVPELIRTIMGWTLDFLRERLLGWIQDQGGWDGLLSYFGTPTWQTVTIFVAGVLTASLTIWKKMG
T2 sequence (Q07813 whole entry): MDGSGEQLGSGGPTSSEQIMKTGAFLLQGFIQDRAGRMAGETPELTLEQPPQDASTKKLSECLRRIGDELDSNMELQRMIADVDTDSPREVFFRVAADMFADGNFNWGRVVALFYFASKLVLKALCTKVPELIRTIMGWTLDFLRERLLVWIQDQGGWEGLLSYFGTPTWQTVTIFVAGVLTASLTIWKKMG

`CC1=NN(c2ccc(C)c(C)c2)C(=O)/C1=N\Nc1cccc(-c2cccc(C(=O)O)c2)c1O` [EO, eltrombopag] was tested, and the “BIM-BH3 induced 6A7 epitope exposure” value (BAX [1]) was “inhibited”, the “lowering of BAX TM (CETSA)” value (BAX in BAK KO MEFs) was 9 °C and the IC50 (BAX [2]; BIM BH3 1 µM, read-out: BIM IC50, inhibition of BAX translocation) was 5.7 µM. For the same compound, the IC50 (BAX [2]; tBID 200 nM, read-out: tBID IC50, inhibition of BAX translocation) was 6.3 µM and the “heat-induced auto-translocation of BAX” value (BAX [2]; heat-induced, no BH3 activator) was “capable of inhibiting heat-induced auto-translocation of BAX”.
